Measurements published in ChEMBL document CHEMBL3886455, “Aminoindane derivatives, pharmaceutical compositions containing them, and their use in therapy” (2016).

Target: T1, Sodium- and chloride-dependent glycine transporter 1 (Homo sapiens, UniProt P48067)
T1 sequence (P48067 whole entry): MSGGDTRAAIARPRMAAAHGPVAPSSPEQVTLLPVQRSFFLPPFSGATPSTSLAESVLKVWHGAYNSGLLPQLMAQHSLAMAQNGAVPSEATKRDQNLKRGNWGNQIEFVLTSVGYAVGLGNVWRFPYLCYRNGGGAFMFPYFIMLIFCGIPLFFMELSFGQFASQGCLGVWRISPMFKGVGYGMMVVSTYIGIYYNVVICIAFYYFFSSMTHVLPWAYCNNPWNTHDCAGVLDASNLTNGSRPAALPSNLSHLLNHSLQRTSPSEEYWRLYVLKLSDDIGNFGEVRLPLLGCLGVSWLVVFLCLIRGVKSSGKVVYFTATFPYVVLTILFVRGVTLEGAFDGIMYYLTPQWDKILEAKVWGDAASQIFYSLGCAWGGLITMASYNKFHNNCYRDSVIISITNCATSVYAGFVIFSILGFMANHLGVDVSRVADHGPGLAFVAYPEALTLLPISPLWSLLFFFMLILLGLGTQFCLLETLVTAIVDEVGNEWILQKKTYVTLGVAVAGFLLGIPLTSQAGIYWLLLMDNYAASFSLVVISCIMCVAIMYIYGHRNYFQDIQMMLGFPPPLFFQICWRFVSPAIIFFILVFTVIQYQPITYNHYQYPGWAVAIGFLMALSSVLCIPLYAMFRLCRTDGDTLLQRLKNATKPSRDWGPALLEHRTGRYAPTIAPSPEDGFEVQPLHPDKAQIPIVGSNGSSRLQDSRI
Test: Radioligand Binding Assay: Radioligand binding to human GlyT1c transporter-expressing membranes was determined as described in Mezler et al., Molecular Pharmacology 74:1705-1715, 2008.

Ki: < 10 nM
Structure (SMILES): Cn1cnc(S(=O)(=O)NCc2cc3c(cc2F)C[C@@H](N)[C@H]3Cc2ccccc2)c1 (relative stereo)
